The assay deals with EF-Tu (6His-tagged EF-Tu, tufA) (Escherichia coli, UniProt P0CE47, E379A). The experiment in a line: biochemical.

Molecules are shown by their SMILES.

Turning to `CCCn1nnnc1NC(=O)c1cccc(Cl)c1` [KKL-55], the Kd (in general, the constant that tells how readily two partners part at equilibrium) is 2400 nM.

The values are drawn from publication PMC11409059, “Substitution of Glu378 in EF-Tu disrupts binding to KKL-55” (microPublication Biology, 2024).
